In one experiment the target is T1, PIKFYVE (Homo sapiens, UniProt Q9Y2I7).
T1 construct: purchased Eurofins (KINOMEscan); host or cells: E. coli BL21-derived (T7 phage display) or HEK-293
T1 sequence (Q9Y2I7 whole entry): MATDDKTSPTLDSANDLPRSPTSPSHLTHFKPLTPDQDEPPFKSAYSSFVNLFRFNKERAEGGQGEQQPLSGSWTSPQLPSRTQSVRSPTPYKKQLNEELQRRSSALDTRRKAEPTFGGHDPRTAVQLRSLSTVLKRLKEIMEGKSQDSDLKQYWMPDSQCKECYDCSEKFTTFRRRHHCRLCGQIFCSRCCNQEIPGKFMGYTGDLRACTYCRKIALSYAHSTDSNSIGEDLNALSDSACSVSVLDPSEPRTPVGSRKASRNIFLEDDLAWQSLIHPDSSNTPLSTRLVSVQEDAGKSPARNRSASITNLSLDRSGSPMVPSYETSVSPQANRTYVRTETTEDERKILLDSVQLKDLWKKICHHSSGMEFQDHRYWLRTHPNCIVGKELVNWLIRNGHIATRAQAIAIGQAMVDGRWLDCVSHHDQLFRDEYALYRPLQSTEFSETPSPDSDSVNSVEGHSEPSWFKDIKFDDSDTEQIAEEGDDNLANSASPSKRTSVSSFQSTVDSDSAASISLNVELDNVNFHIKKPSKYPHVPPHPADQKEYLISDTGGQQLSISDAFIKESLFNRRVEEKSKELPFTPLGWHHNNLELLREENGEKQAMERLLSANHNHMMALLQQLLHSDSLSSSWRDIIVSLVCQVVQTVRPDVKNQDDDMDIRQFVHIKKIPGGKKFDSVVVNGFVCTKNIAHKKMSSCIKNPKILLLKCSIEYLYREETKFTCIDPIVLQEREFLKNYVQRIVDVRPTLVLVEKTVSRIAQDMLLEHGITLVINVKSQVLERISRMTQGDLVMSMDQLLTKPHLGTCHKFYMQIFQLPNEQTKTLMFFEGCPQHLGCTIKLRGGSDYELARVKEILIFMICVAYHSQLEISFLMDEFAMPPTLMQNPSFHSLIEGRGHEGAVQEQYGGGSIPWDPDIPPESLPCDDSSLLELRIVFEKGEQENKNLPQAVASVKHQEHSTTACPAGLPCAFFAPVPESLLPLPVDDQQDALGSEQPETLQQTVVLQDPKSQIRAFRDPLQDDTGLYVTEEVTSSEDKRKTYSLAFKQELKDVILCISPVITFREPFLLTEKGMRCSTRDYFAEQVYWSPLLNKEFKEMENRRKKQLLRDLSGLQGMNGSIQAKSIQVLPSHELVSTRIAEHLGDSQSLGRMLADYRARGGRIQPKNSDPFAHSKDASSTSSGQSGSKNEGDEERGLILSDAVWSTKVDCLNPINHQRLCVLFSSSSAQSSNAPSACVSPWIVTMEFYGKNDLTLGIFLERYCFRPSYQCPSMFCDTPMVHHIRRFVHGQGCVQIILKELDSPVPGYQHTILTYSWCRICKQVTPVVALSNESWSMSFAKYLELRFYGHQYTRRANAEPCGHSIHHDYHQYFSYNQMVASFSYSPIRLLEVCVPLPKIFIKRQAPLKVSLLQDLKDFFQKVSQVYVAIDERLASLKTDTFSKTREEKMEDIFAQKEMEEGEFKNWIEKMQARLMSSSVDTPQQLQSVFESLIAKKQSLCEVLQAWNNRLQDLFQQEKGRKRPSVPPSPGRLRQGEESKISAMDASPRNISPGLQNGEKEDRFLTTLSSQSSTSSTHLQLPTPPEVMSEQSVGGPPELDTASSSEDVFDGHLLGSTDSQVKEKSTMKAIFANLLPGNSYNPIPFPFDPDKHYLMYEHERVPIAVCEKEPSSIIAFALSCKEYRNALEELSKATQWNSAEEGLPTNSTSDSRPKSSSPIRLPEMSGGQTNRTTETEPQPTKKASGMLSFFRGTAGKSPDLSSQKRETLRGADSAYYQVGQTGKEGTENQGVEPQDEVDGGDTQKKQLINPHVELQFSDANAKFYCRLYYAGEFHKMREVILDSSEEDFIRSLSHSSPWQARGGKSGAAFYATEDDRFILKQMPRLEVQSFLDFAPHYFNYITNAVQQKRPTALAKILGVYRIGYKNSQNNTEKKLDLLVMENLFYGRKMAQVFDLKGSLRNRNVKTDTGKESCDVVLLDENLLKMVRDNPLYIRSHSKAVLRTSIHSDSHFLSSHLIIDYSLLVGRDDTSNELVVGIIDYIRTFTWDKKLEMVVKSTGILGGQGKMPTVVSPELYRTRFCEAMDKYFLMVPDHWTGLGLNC
Put plainly: KINOMEscan Kinase Assay (Eurofins), PIKFYVE inhibitory activity. It is filed as binding. The following applies: @ 1 nM.
Usually inhibition stands for the share of the control response that was lost under treatment. On to `Cc1cccc(-c2ccn(-c3nc(N4CCOCC4)c4nc(CN5CCN(C)CC5)[nH]c4n3)n2)c1` [Ex. 35, 4-(8-((4-methylpiperazin-1-yl)methyl)-2-(3-(m-tolyl)-1H-pyrazol-1-yl)-9H-purin-6-yl)morpholine], for which the inhibition at 0.001 µM was determined as 13%.

For `Cc1cccc(-c2ccn(-c3nc(N4CCOCC4)c4sc(CO)c(C)c4n3)n2)c1` [Ex. 53, (7-methyl-4-morpholino-2-(3-(m-tolyl)-1H-pyrazol-1-yl)thieno[3,2-d]pyrimidin-6-yl)methanol], the inhibition at 0.001 µM came out at 17%.

Still in this experiment, the particulars now being: @ 3 nM.
The molecule `Cc1cccc(-c2ccn(-c3cc(N4CCOCC4)c4sc(CN5CCC(C(C)(C)O)CC5)c(C)c4n3)n2)c1` [Ex. 168, 2-(1-((3-Methyl-7-morpholino-5-(3-(m-tolyl)-1H-pyrazol-1-yl)thieno[3,2-b]pyridin-2-yl)methyl)piperidin-4-yl)propan-2-ol] returned an inhibition at 0.003 µM of 23%.

On to `Cc1cccc(-c2ccn(-c3cc(N4CCOCC4)c4sc(CN5CCOCC5)c(C)c4n3)n2)c1` [Ex. 167, 4-(3-Methyl-2-(morpholinomethyl)-5-(3-(m-tolyl)-1H-pyrazol-1-yl)thieno[3,2-b]pyridin-7-yl)morpholine], for which the inhibition at 0.003 µM came to 0%.

As for `Cc1cccc(-c2ccn(-c3nc(N4CCOCC4)c4sc(N5CCN(S(C)(=O)=O)CC5)cc4n3)n2)c1` [Ex. 165, 4-(6-(4-(methylsulfonyl)piperazin-1-yl)-2-(3-(m-tolyl)-1H-pyrazol-1-yl)thieno[3,2-d]pyrimidin-4-yl)morpholine], at 0.003 µM the inhibition was 22%.

Still in this experiment, the particulars now being: @ 5 nM.
The molecule `CC(=O)c1cccc(-c2ccn(-c3cc(N4CCOCC4)c4sc(CN5CCOCC5)cc4n3)n2)c1` [Ex. 184, 1-(3-(1-(7-Morpholino-2-(morpholinomethyl)thieno[3,2-b]pyridin-5-yl)-1H-pyrazol-3-yl)phenyl)ethan-1-one] registered an inhibition at 0.005 µM of 5%.

`Brc1ccn(-c2cc(N3CCOCC3)c3sc(CN4CCOCC4)cc3n2)n1` [Ex. 173, 4-(5-(3-Bromo-1H-pyrazol-1-yl)-2-(morpholinomethyl)thieno[3,2-b]pyridin-7-yl)morpholine] returned an inhibition at 0.005 µM of 8%.

`CC(O)c1cccc(-c2ccn(-c3cc(N4CCOCC4)c4sc(CN5CCOCC5)cc4n3)n2)c1` (centres unmarked) [Ex. 193, 1-(3-(1-(7-Morpholino-2-(morpholinomethyl)thieno[3,2-b]pyridin-5-yl)-1H-pyrazol-3-yl)phenyl)ethan-1-ol] returned an inhibition at 0.005 µM of 22%.

The same experiment, now with this note: @ 50 nM.
The molecule `Cc1cccc(-c2ccn(-c3nc(N4CCOCC4)c4sc(CN5CCC(C(C)(C)O)CC5)cc4n3)n2)c1` [Ex. 5, 2-(1-((4-morpholino-2-(3-(m-tolyl)-1H-pyrazol-1-yl)thieno[3,2-d]pyrimidin-6-yl)methyl)piperidin-4-yl)propan-2-ol] registered an inhibition at 0.05 µM of 100%.

Regarding `CC(=O)N(C)C1CCN(Cc2cc3nc(-n4ccc(-c5cccc(C)c5)n4)nc(N4CCOCC4)c3s2)CC1` [Ex. 7, N-methyl-N-(1-((4-morpholino-2-(3-(m-tolyl)-1H-pyrazol-1-yl)thieno[3,2-d]pyrimidin-6-yl)methyl)piperidin-4-yl)acetamide], the inhibition at 0.05 µM came to 100%.

Still in this experiment, the particulars now being: KINOMEscan.
The IC50 is the concentration at which inhibition is half-maximal. The low end stands for inhibition by little substance, the high end for a need for much substance. Take `Cc1cccc(-c2ccn(-c3nc(N4CCOCC4)c4sc(C(=O)N5CC[C@@H](N(C)C)C5)cc4n3)n2)c1` [Ex. 21, (R)-(3-(dimethylamino)pyrrolidin-1-yl)(4-morpholino-2-(3-(m-tolyl)-1H-pyrazol-1-yl)thieno[3,2-d]pyrimidin-6-yl)methanone]: the IC50 was less than 1 nM.

`Cc1cccc(-c2ccn(-c3cc(N4CCOCC4)c4sc(CN5CCC(N(C)C)C(F)C5)cc4n3)n2)c1` (centres unmarked) [Ex. 69, 3-fluoro-N,N-dimethyl-1-((7-morpholino-5-(3-(m-tolyl)-1H-pyrazol-1-yl)thieno[3,2-b]pyridin-2-yl)methyl)piperidin-4-amine]: the half-inhibitory concentration (IC50) is less than 1 nM.

Molecule `Cc1cccc(-c2ccn(-c3nc(N4CCOCC4)c4nc(CN5CCC(N(C)C)CC5)sc4n3)n2)c1` [Ex. 16, N,N-dimethyl-1-((7-morpholino-5-(3-(m-tolyl)-1H-pyrazol-1-yl)thiazolo[5,4-d]pyrimidin-2-yl)methyl)piperidin-4-amine] gave an IC50 of less than 1 nM.

`Cc1cccc(-c2ccn(-c3cc(N4CCOCC4)c4nc(CN5CCC(C(C)(C)O)CC5)n(C)c4n3)n2)c1` [Ex. 76, 2-(1-((3-methyl-7-morpholino-5-(3-(m-tolyl)-1H-pyrazol-1-yl)-3H-imidazo[4,5-b]pyridin-2-yl)methyl)piperidin-4-yl)propan-2-ol] came in with an IC50 of less than 1 nM.

The molecule `Cc1cccc(-c2ccn(-c3cc(N4CCOCC4)c4nc(CO)n(C)c4n3)n2)c1` [Ex. 75, (3-methyl-7-morpholino-5-(3-(m-tolyl)-11H-pyrazol-1-yl)-3H-imidazo[4,5-b]pyridin-2-yl)methanol] came in with an IC50 of 1 to 10 nM.

Molecule `CS(=O)(=O)N1CCN(Cc2cc3nc(-n4ccc(-c5cccc(Br)c5)n4)nc(N4CCOCC4)c3s2)CC1` [Ex. 1, 4-(2-(3-(3-bromophenyl)-1H-pyrazol-1-yl)-6-((4-(methylsulfonyl)piperazin-1-yl)methyl)thieno[3,2-d]pyrimidin-4-yl)morpholine] yielded an IC50 of 1 to 10 nM.

In the case of `Cc1cccc(-c2ccn(-c3cc(N4CCOCC4)c4nc(CN5CCN(C)CC5)[nH]c4n3)n2)c1` [Ex. 39, 4-(2-((4-methylpiperazin-1-yl)methyl)-5-(3-(m-tolyl)-1H-pyrazol-1-yl)-3H-imidazo[4,5-b]pyridin-7-yl)morpholine], the IC50 was less than 1 nM.

In turn, `Cc1cccc(-c2ccn(-c3nc(N4CCOCC4)c4sc(C(=O)N5CCN(C)CC5)c(C)c4n3)n2)c1` [Ex. 59, (7-methyl-4-morpholino-2-(3-(m-tolyl)-1H-pyrazol-1-yl)thieno[3,2-d]pyrimidin-6-yl)(4-methylpiperazin-1-yl)methanone] registered an IC50 of 1 to 10 nM.

`Cc1cccc(-c2ccn(-c3nc(N4CCOCC4)c4nc(CN5CCC(N6CCC6)C(F)C5)[nH]c4n3)n2)c1` (centres unmarked) [Ex. 43, 4-(8-((4-(azetidin-1-yl)-3-fluoropiperidin-1-yl)methyl-2-(3-m-tolyl)-1H-pyrazol-1-yl)-9H-purin-6-yl)morpholine] gave an IC50 of less than 1 nM.

The molecule `COC1(c2sc3c(N4CCOCC4)nc(-n4ccc(-c5cccc(C)c5)n4)nc3c2C)COC1` [Ex. 65, 4-(6-(3-methoxyoxetan-3-yl)-7-methyl-2-(3-(m-tolyl)-1H-pyrazol-1-yl)thieno[3,2-d]pyrimidin-4-yl)morpholine] showed an IC50 of 1 to 10 nM.

With `Cc1cccc(-c2ccn(-c3cc(N4CCOCC4)c4sc(CN5CCC(N6CCC6)C(F)C5)cc4n3)n2)c1` (centres unmarked) [Ex. 70, 4-(2-((4-(azetidin-1-yl)-3-fluoropiperidin-1-yl)methyl)-5-(3-(m-tolyl)-1H-pyrazol-1-yl)thieno[3,2-b]pyridin-7-yl)morpholine], the concentration for half-maximal inhibition (IC50) is less than 1 nM.

With `Cc1cccc(-c2ccn(-c3cc(N4CCOCC4)c4nc(CN5CC[C@@H](N(C)C)C5)[nH]c4n3)n2)c1` [Ex. 41, (R)—N,N-dimethyl-1-((7-morpholino-5-(3-(m-tolyl)-1H-pyrazol-1-yl)-3H-imidazo[4,5-b]pyridin-2-yl)methyl)pyrrolidin-3-amine], the IC50 was less than 1 nM.

`Cc1cccc(-c2ccn(-c3nc(N4CCOCC4)c4nc(CN5CCOCC5)[nH]c4n3)n2)c1` [Ex. 14, 4-((6-morpholino-2-(3-(m-tolyl)-1H-pyrazol-1-yl)-9H-purin-8-yl)methyl) morpholine]: the IC50 fell in the range of 1 to 10 nM.

`Cc1cccc(-c2ccn(-c3cc(N4CCOCC4)c4nc(CN5CC[C@H](N(C)C)C5)[nH]c4n3)n2)c1` [Ex. 46, (S)—N,N-dimethyl-1-((7-morpholino-5-(3-(m-tolyl)-1H-pyrazol-1-yl)-3H-imidazo[4,5-b]pyridin-2-yl)methyl)pyrrolidin-3-amine] gave an IC50 of less than 1 nM.

On to `Cc1cccc(-c2ccn(-c3nc(N4CCOCC4)c4sc(CN5CCC(N(C)C)C(F)C5)cc4n3)n2)c1` (centres unmarked) [Ex. 51, 3-fluoro-N,N-dimethyl-1-((4-morpholino-2-(3-(m-tolyl)-1H-pyrazol-1-yl)thieno[3,2-d]pyrimidin-6-yl)methyl)piperidin-4-amine], for which the IC50 is less than 1 nM.

`Cc1cccc(-c2ccn(-c3nc(N4CCOCC4)c4sc(CN5CCC(N(C)C)CC5)cc4n3)n2)c1` [Ex. 4, N, N-dimethyl-1-((4-morpholino-2-(3-(m-tolyl)-1H-pyrazol-1-yl)thieno[3,2-d]pyrimidin-6-yl)methyl)piperidin-4-amine] gave an IC50 of less than 1 nM.

With `Cc1cccc(-c2ccn(-c3nc(N4CCCOCC4)c4sc(CN5CCN(S(C)(=O)=O)CC5)cc4n3)n2)c1` [Ex. 71, 4-(6-((4-(methylsulfonyl)piperazin-1-yl)methyl)-2-(3-(m-tolyl)-1H-pyrazol-1-yl)thieno[3,2-d]pyrimidin-4-yl)-1,4-oxazepane], the IC50 lay within 10 to 100 nM.

With `Cc1cccc(-c2ccn(-c3cc(N4CCOCC4)c4nc(CN5CCC(N(C)C)CC5)[nH]c4n3)n2)c1` [Ex. 28, N,N-dimethyl-1-((7-morpholino-5-(3-(m-tolyl)-1H-pyrazol-1-yl)-3H-imidazo[4,5-b]pyridin-2-yl)methyl)piperidin-4-amine], the IC50 was less than 1 nM.

`Cc1cccc(-c2ccn(-c3nc(N4CCOCC4)c4sc(-c5cnn(C)c5)cc4n3)n2)c1` [Ex. 37, 4-(6-(1-methyl-1H-pyrazol-4-yl)-2-(3-(m-tolyl)-1H-pyrazol-1-yl)thieno[3,2-d]pyrimidin-4-yl)morpholine] returned an IC50 of less than 1 nM.

On to `Cc1cccc(-c2ccn(-c3nc(N4CCOCC4)c4sc(CN5CCC(N6CCC6)C(F)C5)c(C)c4n3)n2)c1` (centres unmarked) [Ex. 58, 4-(6-((4-(azetidin-1-yl)-3-fluoropiperidin-1-yl)methyl)-7-methyl-2-(3-(m-tolyl)-1H-pyrazol-1-yl)thieno[3,2-d]pyrimidin-4-yl)morpholine], for which the 50% inhibitory concentration (IC50) was less than 1 nM.

Molecule `Cc1cccc(-c2ccn(-c3nc(N4CCOCC4)c4sc(CN5CCOCC5)cc4n3)n2)c1` [Ex. 29, 4-((4-morpholino-2-(3-(m-tolyl)-1H-pyrazol-1-yl)thieno[3,2-d]pyrimidin-6-yl)methyl)morpholine] showed an IC50 of less than 1 nM.

For the molecule `Cc1cccc(-c2ccn(-c3cc(N4CCOCC4)c4sc(CN5CCOCC5)cc4n3)n2)c1` [Ex. 66, 4-((7-morpholino-5-(3-(m-tolyl)-1H-pyrazol-1-yl)thieno[3,2-b]pyridin-2-yl)methyl)morpholine], the IC50 was less than 1 nM.

For the origin of these results see US20230265103A1 (TME Therapeutics LLC, priority 2021, published 2023).
